Key:
[1] = Stability of subtilin: activity retained after storage or exposure to light
[2] = 120 h

Row | Substance | loss of activity on exposure to light ([1]; exposure to light) | loss of activity on storage ([1]; stored at 4° C. or 20° C.) | activity remaining after storage [2]
1 | subtilin | rapid loss of activity | loses activity rapidly | 
2 | subtilin [stable subtilin] |  |  | greater than 50%

— patent publication US20050026270A1 (University of Maryland, priority 1999, published 2005)
